Three molecules from patent US8828966B2, “Method for treatment of macular degeneration by modulating P2Y12 or P2X7 receptors” (priority 2006, dated 2014) can be followed below.

Data set [1] has as its system ARPE-19 cells. As to the kind of experiment: Lysosomal pH (pHL) with LysoSensor Yellow/Blue, high through-put screen. The format is cell-based, human. To be noted: for effect on pHL, agent alone: cells without other alkalinizing agent, NH4Cl 10 mM, BAF 200 nM, CHQ 20 μM, CFTR-172 10 μM, LDL 10 μg/ml, others not given. The procedure:
Lysosensor Yellow/Blue co-localized with the Lysotracker Red dye in small vesicles, with a distribution consistent with lysosomal origin. Measurements of pHL were performed using a high throughput screening (HTS) protocol to maximize output and minimize variation using ARPE-19 cells in 96 well plates. […] Loading for 5 min. at 23° C. with 5 μM lysosensor, followed by 15 min. for internalization, produced stable and reproducible results.
The ratio was converted to pH by calibrating with KCl buffered to pH 4.0-6.0 in the presence of monensin and nigericin. Calibration indicated a baseline pH of 4.4 to 4.5, supporting lysosomal localization. […] NH4Cl decreased the ratios slightly at 380 nm. Nevertheless, absent the addition of the dye, none of these compounds, or any others, altered the fluorescent signal at 340 or 380 nm, showing a specificity of the measured change to pHL. […] This quantification is necessary to predict the potential effectiveness of acidifying drugs to restore lysosomal enzyme activity.
Extensive trials determined that the optimal response is obtained with 5 minute dye loading and 15 minute post-incubation. […] All reagents were from Sigma Chemical Corp. unless otherwise indicated.
In general, each condition below used 3-12 independent wells per plate, in 3-6 separate plates. As levels from individual plates varied, data was normalized to the mean pHL for control wells from each plate. Fluorescent ratios were converted to pH following calibration performed on each plate as described. Incubation with Lysosensor Yellow/Blue was kept constant and all measurements were performed 15 min after removal of dye from the bath to ensure continuity. Significance was determined with a one-way ANOVA and Tukey post test. Drugs were always tested on control cells to ensure modification of healthy RPE cells was minimal, and cells were not exposed to dye to make sure effects were specific. All background was subtracted from the fluorescence excited at 340 and 380 nm independently before calculation of the ratio.

In data set [2] the test system is ARPE-19 cells. Put plainly: Toxicity of A2E to cultured cells. The format is cell-based, human. To be noted: A2E 100 nM, over a period of 1-2 weeks. The procedure: Holz and colleagues previously reported A2E responses, but the increase in pHL required four weeks of feeding the cells with A2E (14 nM) every 3-4 days, and the A2E was complexed to low-density lipoprotein (LDL; 10 μg/ml) (Holz et al., supra, 1999). […] To reduce the lengthy time course, higher concentrations of A2E (100 nM) were tested, but the cells were killed over a period of 1-2 weeks. Therefore, alternative methods were needed to permit timely testing of the effect of pH on lysosomal activity in the RPE cells.

For data set [3] the following is noted: NH4Cl 10 mM.
Protocol: Isolation of Lysosomes: ARPE-19 cells were detached with 0.25% trypsin, centrifuged at 1000 rpm for 5 minutes, and resuspended in 0.25M sucrose with 5 mM ATP in 10 mM Tris buffer (pH 7.4 with HCl). After homogenization, samples were spun at 1000×g (10 min). The supernatant was centrifuged (20,000×g, 10 min) and the pellet was resuspended in a 0.25 M sucrose buffer with 8 mM CaCl2 in Tris-HCl buffer (pH 7.4) to lyse mitochondria (15 min, 35° C.). […] After isolation, lysosomes were diluted 1:10 in a 150 mM KCl solution in Tris-HCl (pH 7.4) and pelleted at 25,000×g. The pellet was then resuspended in 5 μM Lysosensor dye. Cells were washed 2× by centrifugation (25,000×g, 15 min), resuspended in test or control solutions including 5 mM MgATP, plated into a 96 well plate (50 μl/well) and the pH was measured as above.
In data set [4] the test system is Cathepsin-D activity in ARPE-19 cells. As to the kind of experiment: Cathepsin-D activity monitored with a fluorescent reporter. The format is cell-based, human. As to conditions: addition of BzATP. The source says: In FIG. 13C, it is shown that BzATP reduced lysosomal enzyme activity. […] Cathepsin D is the major lysosomal protease responsible for degrading photoreceptors in the RPE, and thus changes to cathepsin D activity reflect the ability of the lysosomes to successfully degrade (dispose of) phagocytosed outer segments. […] Consequently, by applying exogenous antagonists to the P2X7 and P2Y12 receptors (i.e., P2X7 receptor-antagonist, and/or P2Y12 receptor-antagonist), the resulting pH elevation by endogenously released ATP is inhibited or prevented, thereby enhancing degradation of the metabolic waste by the lysosomes, reducing autofluorescent lipofuscin accumulation, and thus reducing the onset or progression of AMD.

Data set [5] has as its system LC3BII and p62 in ARPE-19 cells. Put plainly: Western blot of autophagy markers. The format is cell-based, human. As to conditions: Western blot quantification. The source says: While the RPE cells must degrade phagocytosed outer segments, they must also degrade and dispose of their own waste material through a process termed autophagy. The ability of P2X7 receptor stimulation to rapidly raise levels of autophagy markers LC3BII and p62 are consistent with the effects of raising lysosomal pH, for they imply that lysosomal alkalinization prevents the RPE cell from degrading material from autopagic vesicles containing p62 or tagged with LC3BII. (See, Kabeya, Y., et al., “LC3, a mammalian homolog of yeast Apg8p, is localized in autophagosome membranes after processing.” EMBO J., 22:[…] (2003); Moscat, J. and Diaz-Meco, M. T. (2009) “p62 at the Crossroads of Autophagy, Apoptosis, and Cancer,” Cell 137:1001-1004 (2009)).
(In general: In western blotting, separated proteins are transferred to a membrane and probed.)

For the molecule `CC(C=CC1=C(C)CCCC1(C)C)=CC=CC(C)=Cc1cc(C=CC=C(C)C=CC2=C(C)CCCC2(C)C)cc[n+]1CCO` [A2E, N-retinylidene-N-retinylethanolamine], the “increase in pHL” value in the data set with ARPE-19 cells [1] (ARPE-19 cells, A2E (14 nM) fed for 4 weeks) was 0.4 units. Also, the cell killing entry in the data set with ARPE-19 cells [2] is on record as “killed”.
Turning to `Cl.N` [NH4Cl], the “effect on pHL, agent alone” value in the data set with ARPE-19 cells [1] is reported as “pH was elevated”. The “340/380 ratio in isolated lysosomes” value in data set [3] is listed as “increased the 340/380 ratio”.
For the molecule BzATP, the “effect on pHL, agent alone” value in the data set on ARPE-19 cells [1] is “elevation of the lysosomal pHL”. The Cathepsin-D activity entry in data set [4] is on record as “visibly decreased”. In addition, in data set [5], the LC3BII level entry is recorded as “rapid increases” and the p62 level result is given as “rapid increases”.
